# In patent US20250197799A1, “CELLS DERIVED FROM POLYPEDILUM VANDERPLANKI AND ODOR SENSOR EQUIPPED THEREWITH” (University of Maryland, College Park, priority 2022, published 2025):
# “Also recorded” adds a separate entry of the source.
# Experiments:
# Orco-Or47a [1] = target: T1, Orco-Or47a (Drosophila melanogaster, UniProt P81921+Q9VNB5); assay: Response after rehydration with cycloheximide treatment, Orco-Or47a stable expression cell line; assay type: cell-based; set-up: remnant residues; expressed in transfected cells; host or cells: Pv11 cells (Polypedilum vanderplanki), CRIS-PITCh knock-in at the Pv.00443 locus downstream of the 121 promoter, Zeocin selection and single-cell sorting
# T1 sequence (Q9VNB5 1-486): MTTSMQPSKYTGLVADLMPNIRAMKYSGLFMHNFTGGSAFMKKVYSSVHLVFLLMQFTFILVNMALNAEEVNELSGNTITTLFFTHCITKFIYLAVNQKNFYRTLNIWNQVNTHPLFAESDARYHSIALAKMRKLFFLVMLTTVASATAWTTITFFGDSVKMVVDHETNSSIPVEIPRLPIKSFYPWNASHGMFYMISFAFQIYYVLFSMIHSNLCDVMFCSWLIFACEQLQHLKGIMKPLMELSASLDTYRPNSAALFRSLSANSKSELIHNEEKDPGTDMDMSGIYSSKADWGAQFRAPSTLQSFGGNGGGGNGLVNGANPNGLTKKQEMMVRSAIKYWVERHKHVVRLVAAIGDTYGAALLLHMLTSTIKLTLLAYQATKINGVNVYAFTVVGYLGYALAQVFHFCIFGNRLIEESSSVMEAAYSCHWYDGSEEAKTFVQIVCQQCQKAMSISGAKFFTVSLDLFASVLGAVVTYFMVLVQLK
# T1 sequence (P81921 1-385): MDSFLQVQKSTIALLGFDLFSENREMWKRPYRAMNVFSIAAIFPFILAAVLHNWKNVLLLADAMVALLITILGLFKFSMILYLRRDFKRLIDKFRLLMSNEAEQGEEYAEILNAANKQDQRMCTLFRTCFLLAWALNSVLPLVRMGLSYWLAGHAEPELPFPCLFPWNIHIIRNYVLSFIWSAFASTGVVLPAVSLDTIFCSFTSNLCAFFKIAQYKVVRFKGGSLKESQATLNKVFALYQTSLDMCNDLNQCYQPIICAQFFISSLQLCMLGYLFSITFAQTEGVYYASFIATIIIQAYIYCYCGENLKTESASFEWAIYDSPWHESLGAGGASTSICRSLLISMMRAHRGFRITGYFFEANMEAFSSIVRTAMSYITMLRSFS
# Method: 7. Confirmation that exogenous membrane protein responses in Orco-Or47a stable expression cell lines immediately after rehydration are not due to de novo protein synthesis. To confirm that the membrane protein response of the Orco-Or47a stable expression cell line immediately after rehydration was not due to de novo protein synthesis, cells were treated with cycloheximide (CHX, a protein synthesis inhibitor).
# A previous study reported that 0.35 mM of cycloheximide is able to inhibit protein production in Pv11 cells. Therefore, also in this experiment, cycloheximide was dissolved in IPL-41 medium so that the cycloheximide concentration was 0.35 mM. An IPL-41 medium with 0.01 mM, 0.07 mM and 0.7 mM cycloheximide was also prepared. The rehydration of dried cells was performed using 1 ml of I PL-41 medium containing cycloheximide. One hour after rehydration and 24 hours after rehydration, the same operation as in 3.6 above was performed, and the fluorescence intensity was measured and analyzed. The ΔF/F0 was as described above. FIG. 7A and FIG. 7B are graphs showing changes in fluorescence intensity of the Orco-Or47a stable expression cell line response to VUAA1 and pentyl acetate, respectively, one hour after drying and rehydration. FIGS. 7C and 7D are graphs showing changes in fluorescence intensity, respectively, in response to VUAA1 and pentyl acetate of Orco-Or47a stable expression cell lines 24 hours after drying and rehydration.
# Orco-Or47a [2] = target: T1, Orco-Or47a; assay: Exogenous membrane protein function before drying and after drying-rehydration, Orco-Or47a stable expression cell line; assay type: cell-based; set-up: remnant residues; expressed in transfected cells; host or cells: Pv11 cells (Polypedilum vanderplanki), CRIS-PITCh knock-in at the Pv.00443 locus downstream of the 121 promoter, Zeocin selection and single-cell sorting
# Method: To assess the drought tolerance of the cell lines, the cells were dried according to the following protocol. 4×10^7 Pv11-GCaMP6f stable expression cell lines were centrifuged at 700 g for 3 minutes and the supernatant removed. The precipitated cells were suspended in a 600 mM trehalose mix of 600 mM trehalose and IPL-41 medium at a ratio of 9:1, transferred to a 2 ml flask, and incubated at 25° C. for 48 hours. After 48 hours, the obtained cells were centrifuged at 700 g for 3 minutes and the supernatant was removed. The sedimented cells were suspended in 400 μl of 600 mM trebalose mix, and 40 μl were dropped onto a 35 mm dish. The 35 mm dish was dried for 10 days under conditions of 25° C. and humidity of 10% or less.
# 6. Assessment of exogenous membrane protein function after drying-rehydration. Using the Orco stable expression cell line and Orco-Or47a stable expression cell line, in order to assess the function of exogenous membrane proteins before drying and after 1 hour of rehydration after drying, fluorescence intensity generated in response to stimulation with VUAA1 (Orco agonist) or pentyl acetate (ligand of Or47a) was measured in the same manner as in 3.2 above.
# The fluorescence intensity was digitized from the photograph, and ΔF/F was calculated according to the following formula:
# Where the summation Σi=1^n is over the n cells in the image, Fi,after means the fluorescence intensity of the cell i after adding the ligand solution, and Fi,0 means the fluorescence intensity of the cell i before adding the ligand solution.
# Specifically, a fluorescence image was taken under the condition in which the excitation wavelength/fluorescence wavelength was 488 nm/525 nm. In the fluorescence intensity quantification, the cells were identified in the photographed image, and the fluorescence intensity (F) was measured for each time. The initial values of fluorescence intensity (F0) were subtracted from the measured fluorescence intensity at each time to obtain the amount of change in fluorescence (ΔF), which was then normalized by dividing by the initial value of fluorescence intensity (F0) to obtain (Δ F/F0). A number of cells n were selected from the captured image, ΔF/F0 were produced for each, and the average value (including standard deviation, SD) of the results was graphed. For example, 25 cells were selected from the captured image, ΔF/F0 for each were produced, and the averaged results (including SD) were graphed. […] The Orco-Or47a stable expression cell line before drying responded to the Orco agonist (VUAA1) and the specific ligand of Or47a, pentyl acetate.
# [3] = 1 hour after drying-rehydration
# [4] = 24 hours after rehydration, without CHX
# [5] = 1 hour after drying and rehydration, compared to DMSO control
SMILES,response as change in fluorescence intensity (ΔF/F0) (Orco-Or47a [1]; [3]),response as change in fluorescence intensity (ΔF/F0) (Orco-Or47a [1]; [4]),response as change in fluorescence intensity (ΔF/F0) (Orco-Or47a [2]; [5]),response as change in fluorescence intensity (ΔF/F0) (Orco-Or47a [2]; before drying)
"CCc1ccc(NC(=O)CSc2nnc(-c3cccnc3)n2CC)cc1 [VUAA1, N-(4-ethylphenyl)-2-{[4-ethyl-5-(pyridin-3-yl)-4H-1,2,4-triazol-3-yl]sulfanyl}acetamide]",specific responses,strongly enhanced,significant difference in responsiveness; also recorded: fluorescence was observed,responded
CCCCCOC(C)=O [pentyl acetate],specific responses,strongly enhanced,significant difference in responsiveness; also recorded: fluorescence was observed,responded
